Starred links: 1 amine or outer side, 2 acyl side, 3 side chain; linkers in the order of their positions; H or OH if unused. Positions of bridges follow the written chain, without caps; N, C: chain ends. Residues, ends and D or L forms follow the SMILES beside them. Chains are numbered I, II in the order given. *: point of attachment. FITC = O=C1OC2(c3ccc(O)cc3Oc3cc(O)ccc32)c2ccc(NC(=S)*)cc21; X1 = c1cc(C[*:1])ccc1COCc1ccc(C[*:2])cc1; βAla = NCCC(=O)O
Columns and labels:
[1] = target: T1, recombinant human MYC^353–437 protein (His6-MYC^353–437) (Homo sapiens, UniProt P01106); assay: Fluorescence polarization direct binding of fluorescein-labeled CHDs to His6-MYC353-437; settings: FP direct binding; 15 nM FITC-labeled peptide; His6-MYC serial dilutions from 10 μM; 1X PBS, 1 mM DTT, 5% glycerol, 0.1% pluronic acid, pH 6.7; 25 °C; triplicate; MYC aggregates above 5 μM; read-out: Binding Affinity MYC^353-436, Kd
T1 construct: recombinant human MYC^353–437 protein; made in house; host or cells: E. coli BL21(DE3), pET151-D-TOPO-cMyc vector
T1 sequence (P01106 368-452): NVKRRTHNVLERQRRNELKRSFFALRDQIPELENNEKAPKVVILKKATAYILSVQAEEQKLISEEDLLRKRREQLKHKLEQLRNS
Procedure: pET151-D-TOPO-cMyc vector was kindly provided by Dr. Edward Prochownik from the
Department of Pediatrics at UPMC Children’s Hospital of Pittsburgh. Expression and purification
of Myc353-437 were performed using an established protocol with minor modifications.7 BL21(DE3)
cells were used to express recombinant Myc353-437 protein. Bacteria were grown at 37 °C to OD600
of 0.8 followed by 1 mM IPTG induction and 16-18h growth at RT. Cells were harvested via
centrifugation at 4,000 rpm at 4 °C and the pellet was resuspended in 10 mL of lysis buffer (8 M
urea, 100 mM NaH2PO4, 10 mM Tris HCl, pH 8) supplemented with protease inhibitor cocktail
(PierceTM Protease Inhibitor Tablets) and benzonase nuclease. Suspensions were sonicated on
ice using a Branson Cell Disruptor 200 and centrifuged at 12,000 rpm for 45 min at 4 °C. Clarified
lysate was applied to a column containing pre-equilibrated HisPur Ni-NTA Superflow Agarose
(ThermoFisher Scientific) for overnight at 4 °C. The resin beads were washed with 10 mL of
additional lysis buffer followed by three washes of 10 mL wash buffer (8 M urea, 100 mM
NaH2PO4, 10 mM Tris HCl, 10 mM imidazole). The target protein was eluted with elution buffer (8
M urea, 100 mM NaH2PO4, 10 mM Tris HCl, 250 mM imidazole) and buffer exchanged into 150
mM NaCl, 50 mM Tris HCl, 5% glycerol, pH 6.7. Protein was concentrated by ultra-filtration (3000
MWCO; Amicon Ultra-15 Centrifugal Filter units from EMD Millipore) followed by TEV cleavage
(1:100 w/w of protease to target protein) in 150 mM NaCl, 50 mM Tris HCl, 5% glycerol, pH 6.7
for 24 hrs at 4 °C. The cleaved protein is further purified by reverse-phase HPLC (gradient 10-60
acetonitrile/water with 0.1% TFA over 35 min) to remove TEV protease and un-cleaved protein.
Purified Myc353-437 was lyophilized and stored at -20 °C. Myc353-437 identity was characterized by
(§1) Fluorescence Polarization Binding Assay
(§2) The relative affinities of FITC-CHDMax-1 to His6-Myc353-436 and full-length His6-Max were
(§3) determined using fluorescence polarization-based direct binding assay. The polarization
(§4) experiments were performed using a DTX 880 Multimode Detector (Beckman) at 25 °C with
(§5) excitation and emission wavelengths of 485 and 525 nm, respectively. Each polarization
(§6) experiment was performed in a 96-well round bottom plate (Greiner) in assay buffer: 1X PBS, 1
(§7) mM DTT, 5% glycerol, 0.1% pluronic acid, pH 6.7. The binding affinity (KD) values reported for
(§8) each peptide are from experiments performed in triplicate. Raw values were fit to a sigmoidal
(§9) dose-response nonlinear regression model in GraphPad Prism 6.0.
(§10) All binding experiments with FITC-labeled peptides to His6-Myc353-436 or His6-Max were performed
(§11) under the same conditions. Briefly, serial dilutions of His6-Myc353-436 and His6-Max were made
(§12) from 10 μM into 15 nM of FITC-labeled peptide in assay buffer. KD was determined using the
(§13) KD1 = (RT*(1-FSB) + LST*FSB2)/FSB-LST
(§14) RT = Total concentration of His6-Myc353-436 or His6-Max
(§15) LST = Total concentration of FITC-labeled peptide
(§16) FSB = Fraction of bound FITC-labeled peptide

[2] = target: T2, full-length His6-Max (MAX^1-160) (Homo sapiens, UniProt P61244); assay: Fluorescence polarization direct binding to His6-MAX; settings: FP direct binding; 15 nM FITC-labeled peptide; His6-MAX from 10 μM; 1X PBS, 1 mM DTT, 5% glycerol, 0.1% pluronic acid, pH 6.7; 25 °C
T2 construct: N.B. (MAX^1-160)
T2 sequence (P61244 whole entry): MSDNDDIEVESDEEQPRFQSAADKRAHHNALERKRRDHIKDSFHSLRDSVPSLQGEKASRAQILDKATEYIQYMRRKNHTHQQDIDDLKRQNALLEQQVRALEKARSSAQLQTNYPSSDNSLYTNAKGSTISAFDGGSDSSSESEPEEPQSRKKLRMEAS
Procedure: as §1, §2, §3, §4, §5, §6, §7, §8, §9, §10, §11, §12, §13, §14, §15, §16

| Kd [1] | CHD^Max-1 Binding Affinity, Kd (MAX^1-160) [2] | SMILES |
| --- | --- | --- |
| > 5000 nM | – | CC[C@H](C)[C@H](NC(=O)[C@H](CCC(=O)O)NC(=O)[C@H](Cc1c[nH]c2ccccc12)NC(=O)[C@H](CCC(N)=O)NC(=O)[C@H](C)NC(=O)[C@@H](NC(=O)[C@H](CCC(=O)O)NC(=O)[C@H](C)NC(=O)[C@H](CCCCN)NC(=O)[C@H](CCCNC(=N)N)NC(=O)[C@H](CCCNC(=N)N)NC(=O)[C@H](CC(C)C)NC(C)=O)[C@@H](C)O)C(=O)N[C@@H](CCC(=O)O)C(=O)N[C@@H](CCC(=O)O)C(=O)N[C@@H](CC(C)C)C(=O)N[C@@H](CSCc1ccc(COCc2ccc(CSC[C@H](NC(=O)[C@H](Cc3c[nH]c4ccccc34)NC(=O)[C@H](CCC(N)=O)NC(=O)[C@H](CC(C)C)NC(=O)[C@@H](NC(=O)[C@H](C)NC(=O)[C@H](C)NC(=O)[C@H](CCCCN)NC(=O)[C@H](CCC(=O)O)NC(=O)[C@H](CCCNC(=N)N)NC(=O)[C@H](CC(C)C)NC(C)=O)[C@@H](C)O)C(=O)N[C@H](C(=O)N[C@@H](CCC(=O)O)C(=O)N[C@@H](CCC(=O)O)C(=O)N[C@@H](CC(C)C)C(=O)N[C@@H](CCCNC(=N)N)C(=O)N[C@@H](CCCCN)C(N)=O)[C@@H](C)CC)cc2)cc1)C(N)=O [CHD^Max-3] (I: Ac-LREKAATLQWCIEELRK-NH2 / II: Ac-LRRKAETAQWEIEELC-NH2; linker I:11-II:16 via X1) |
| 350 ± 17 nM | no binding was observed | CC[C@H](C)[C@H](NC(=O)[C@H](CCCCN)NC(=O)[C@H](CCC(=O)O)NC(=O)[C@H](CCCNC(=N)N)NC(=O)[C@H](CC(C)C)NC(=O)CCNC(=S)Nc1ccc2c(c1)C(=O)OC21c2ccc(O)cc2Oc2cc(O)ccc21)C(=O)N[C@@H](C)C(=O)N[C@H](C(=O)N[C@@H](CC(C)C)C(=O)N[C@@H](CCC(N)=O)C(=O)N[C@@H](Cc1c[nH]c2ccccc12)C(=O)N[C@@H](CSCc1ccc(COCc2ccc(CSC[C@H](NC(=O)[C@H](CC(C)C)NC(=O)[C@H](CCC(=O)O)NC(=O)[C@H](CCC(=O)O)NC(=O)[C@@H](NC(=O)[C@H](CCC(=O)O)NC(=O)[C@H](Cc3c[nH]c4ccccc34)NC(=O)[C@H](CCC(N)=O)NC(=O)[C@H](Cc3c[nH]cn3)NC(=O)[C@@H](NC(=O)[C@H](CCC(=O)O)NC(=O)[C@H](CC(N)=O)NC(=O)[C@H](CCCCN)NC(=O)[C@H](CCCNC(=N)N)NC(=O)[C@H](CCCNC(=N)N)NC(=O)[C@H](CC(C)C)NC(C)=O)[C@@H](C)O)[C@@H](C)CC)C(N)=O)cc2)cc1)C(=O)N[C@H](C(=O)N[C@@H](CCC(=O)O)C(=O)N[C@@H](CCC(=O)O)C(=O)N[C@@H](CC(C)C)C(=O)N[C@@H](CCCNC(=N)N)C(=O)N[C@@H](CCCCN)C(N)=O)[C@@H](C)CC)[C@@H](C)O [FITC–CHD^Max-1] (I: {FITC-βAla}-LREKIATLQWCIEELRK-NH2 / II: Ac-LRRKNETHQWEIEELC-NH2; linker I:11-II:16 via X1) |
| > 5000 nM | – | CC[C@H](C)[C@H](NC(=O)[C@H](CCC(=O)O)NC(=O)[C@H](Cc1c[nH]c2ccccc12)NC(=O)[C@H](CCC(N)=O)NC(=O)[C@H](C)NC(=O)[C@@H](NC(=O)[C@H](CCC(=O)O)NC(=O)[C@H](C)NC(=O)[C@H](CCCCN)NC(=O)[C@H](CCCNC(=N)N)NC(=O)[C@H](CCCNC(=N)N)NC(=O)[C@H](CC(C)C)NC(C)=O)[C@@H](C)O)C(=O)N[C@@H](CCC(=O)O)C(=O)N[C@@H](CCC(=O)O)C(=O)N[C@@H](CC(C)C)C(=O)N[C@@H](CSCc1ccc(COCc2ccc(CSC[C@H](NC(=O)[C@H](Cc3c[nH]c4ccccc34)NC(=O)[C@H](CCC(N)=O)NC(=O)[C@H](CC(C)C)NC(=O)[C@@H](NC(=O)[C@H](C)NC(=O)[C@H](C)NC(=O)[C@H](CCCCN)NC(=O)[C@H](CCC(=O)O)NC(=O)[C@H](CCCNC(=N)N)NC(=O)[C@H](CC(C)C)NC(=O)CCNC(=S)Nc3ccc4c(c3)C(=O)OC43c4ccc(O)cc4Oc4cc(O)ccc43)[C@@H](C)O)C(=O)N[C@H](C(=O)N[C@@H](CCC(=O)O)C(=O)N[C@@H](CCC(=O)O)C(=O)N[C@@H](CC(C)C)C(=O)N[C@@H](CCCNC(=N)N)C(=O)N[C@@H](CCCCN)C(N)=O)[C@@H](C)CC)cc2)cc1)C(N)=O [FITC–CHD^Max-3] (I: {FITC-βAla}-LREKAATLQWCIEELRK-NH2 / II: Ac-LRRKAETAQWEIEELC-NH2; linker I:11-II:16 via X1) |
| 880 ± 53 nM | – | CC[C@H](C)[C@H](NC(=O)[C@H](CCCCN)NC(=O)[C@H](CCC(=O)O)NC(=O)[C@H](CCCNC(=N)N)NC(=O)[C@H](CC(C)C)NC(C)=O)C(=O)N[C@@H](C)C(=O)N[C@H](C(=O)N[C@@H](CC(C)C)C(=O)N[C@@H](CCC(N)=O)C(=O)N[C@@H](Cc1c[nH]c2ccccc12)C(=O)N[C@@H](CSCc1ccc(COCc2ccc(CSC[C@H](NC(=O)[C@H](CC(C)C)NC(=O)[C@H](CCC(=O)O)NC(=O)[C@H](CCCNC(=N)N)NC(=O)[C@@H](NC(=O)[C@H](CCCNC(=N)N)NC(=O)[C@H](Cc3c[nH]c4ccccc34)NC(=O)[C@H](CCC(N)=O)NC(=O)[C@H](Cc3c[nH]cn3)NC(=O)[C@@H](NC(=O)[C@H](CCC(=O)O)NC(=O)[C@@H](NC(=O)[C@H](CCCNC(=N)N)NC(=O)[C@H](C)NC(=O)[C@H](CCC(=O)O)NC(=O)[C@H](CC(C)C)NC(C)=O)[C@@H](C)CC)[C@@H](C)O)[C@@H](C)CC)C(=O)N[C@@H](CCC(=O)O)C(N)=O)cc2)cc1)C(=O)N[C@H](C(=O)N[C@@H](CCC(=O)O)C(=O)N[C@@H](CCC(=O)O)C(=O)N[C@@H](CC(C)C)C(=O)N[C@@H](CCCNC(=N)N)C(=O)N[C@@H](CCCCN)C(N)=O)[C@@H](C)CC)[C@@H](C)O [CHD^Max-2] (I: Ac-LEARIETHQWRIRELCE-NH2 / II: Ac-LREKIATLQWCIEELRK-NH2; linker I:16-II:11 via X1) |

— publication PMC12022973, “Proteomimetic Strategy for the Modulation of Intrinsically Disordered Protein MYC” (Journal of the American Chemical Society, 2025)
